Earlier results as cited in US12458645B2, “Pediatric powder for oral suspension containing antiviral agent and method for the preparation thereof” (PHARMATHEN S.A., priority 2014, dated 2025).
Counter-ions that a name gives are not always drawn.

Key:
[1] = in words
[2] = in words; remark: listed apart in the source

Compound: CC(C)[C@H](N)C(=O)OCCOCn1cnc2c(=O)[nH]c(N)nc21 [Valaciclovir hydrochloride, L-valine, 2-[(2-amino-1,6-dihydro-6-oxo-9H-purin-9-yl)methoxy] ethyl ester, mono hydrochloride]
- solubility in dichloromethane [1]: insoluble in dichloromethane
- solubility in water [1]: soluble in water

Compound: Nc1nc2c(ncn2COCCO)c(=O)[nH]1 [acyclovir, Acyclovir]
- oral bioavailability [2]: poor oral bioavailability
